pKi: −log10 of the molar value. Read-outs that look alike come from different tables or passages of the source.
Target: T1, human V1b receptors (Homo sapiens, UniProt P47901)
T1 construct: expressed in transfected cells; preparation V1b-3H2
T1 sequence (P47901 1-424): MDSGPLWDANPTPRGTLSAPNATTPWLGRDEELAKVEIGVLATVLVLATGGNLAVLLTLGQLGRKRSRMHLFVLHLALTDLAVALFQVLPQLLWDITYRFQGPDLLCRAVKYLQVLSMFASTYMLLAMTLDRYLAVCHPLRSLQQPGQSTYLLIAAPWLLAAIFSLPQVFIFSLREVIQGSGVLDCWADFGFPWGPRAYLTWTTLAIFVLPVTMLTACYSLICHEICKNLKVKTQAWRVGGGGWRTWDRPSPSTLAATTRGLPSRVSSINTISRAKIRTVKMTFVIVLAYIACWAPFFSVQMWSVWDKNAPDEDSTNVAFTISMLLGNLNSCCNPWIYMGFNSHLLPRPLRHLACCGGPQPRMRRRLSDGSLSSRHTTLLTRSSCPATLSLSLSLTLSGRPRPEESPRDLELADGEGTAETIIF
Experiment: Vasopressin V1b receptor binding assay
Method: Vasopressin V1b Receptor Binding Assay:
This DMSO predilution series was diluted 1:10 with assay buffer. The substance concentration was further diluted 1:10 in the assay mixture.
The nonspecific binding was determined with 10^−6 M AVP. Determinations in triplicate were carried out.
The affinities for the human vasopressin V1b receptor were measured, and affinity constants determined, in the above assay for the inventive examples.
The affinities of the compounds (I) of the invention for the human vasopressin V1b receptor were measured in accordance with the above assays, and the affinity constants. (Ki) were determined. Table 1 below details the V1b receptor affinity of selected compounds (++ means <50 nM and + means 50-500 nM).

[1] = membranes from CHO-K1 cells with human V1b receptors, 3H-AVP displacement, read-out: V1b Ki
[2] = read-out: Ki values, affinity for the vasopressin V1b receptor

SMILES	pKi [1]	pKi [2]
CCOc1ccccc1C1(OC(=O)N2CCN(c3nccs3)CC2)C(=O)N(S(=O)(=O)c2ccsc2)c2ccc(C#N)cc21 (stereo not drawn) [Example 8, 5-Cyano-3-(2-ethoxyphenyl)-2-oxo-1-(thien-3-ylsulfonyl)-2,3-dihydro-1H-indol-3-yl 4-(thiazol-2-yl)piperazine-1-carboxylate]	6.30 to 7.30	–
CCOc1ccccc1C1(OC(=O)N2CCN(c3cnccn3)CC2)C(=O)N(S(=O)(=O)c2cccc3cccnc23)c2ccc(C#N)cc21 (stereo not drawn) [Example 7, 5-Cyano-3-(2-ethoxyphenyl)-2-oxo-1-(quinoline-8-sulfonyl)-2,3-dihydro-1H-indol-3-yl 4-(pyrazin-2-yl)piperazine-1-carboxylate]	6.30 to 7.30	> 7.00
CCOc1ccccc1C1(OC(=O)N2CCN(c3ccc(C#N)cn3)CC2)C(=O)N(S(=O)(=O)c2cccc3cccnc23)c2ccc(C#N)cc21 (stereo not drawn) [Example 11, 5-Cyano-3-(2-ethoxyphenyl)-2-oxo-1-(quinoline-8-sulfonyl)-2,3-dihydro-1H-indol-3-yl 4-(5-cyanopyridin-2-yl)piperazine-1-carboxylate]	> 7.30	> 7.00
CCOc1ccccc1C1(NC(=O)N2CCN(c3ccc(C#N)cn3)CC2)C(=O)N(S(=O)(=O)c2ccsc2)c2ccc(C#N)cc21 (stereo not drawn) [Example 10, 4-(5-Cyanopyridin-2-yl)piperazine-1-[5-cyano-3-(2-ethoxyphenyl)-2-oxo-1-(thien-3-ylsulfonyl)-2,3-dihydro-1H-indol-3-yl]carboxamide]	6.30 to 7.30	> 7.00
CCOc1ccccc1C1(OC(=O)N2CCN(c3ncccn3)CC2)C(=O)N(S(=O)(=O)c2cccc3cccnc23)c2ccc(C#N)cc21 (stereo not drawn) [Example 6, 5-Cyano-3-(2-ethoxyphenyl)-2-oxo-1-(quinoline-8-sulfonyl)-2,3-dihydro-1H-indol-3-yl 4-(pyrimidin-2-yl)piperazine-1-carboxylate]	> 7.30	> 7.00

The remaining lines, values ahead:

pKi [1]	pKi [2]	SMILES
> 7.30	> 7.00	CCOc1ccccc1C1(OC(=O)N2CCN(c3ccncc3)CC2)C(=O)N(S(=O)(=O)c2ccsc2)c2ccc(C#N)cc21 (stereo not drawn) [Example 4, 5-Cyano-3-(2-ethoxyphenyl)-2-oxo-1-(thien-3-ylsulfonyl)-2,3-dihydro-1H-indol-3-yl 4-(pyridin-4-yl)piperazine-1-carboxylate]
> 7.30	> 7.00	CCOc1ccccc1C1(NC(=O)N2CCN(c3ccncc3)CC2)C(=O)N(S(=O)(=O)c2cccc3cccnc23)c2ccc(C#N)cc21 (stereo not drawn) [Example 2, 4-(Pyridin-4-yl)piperazin-1-[5-cyano-3-(2-ethoxyphenyl)-2-oxo-1-(quinoline-8-sulfonyl)-2,3-dihydro-1H-indol-3-yl]carboxamide]
> 7.30	> 7.00	CCOc1ccccc1C1(OC(=O)N2CCN(c3nccs3)CC2)C(=O)N(S(=O)(=O)c2cccc3cccnc23)c2ccc(C#N)cc21 (stereo not drawn) [Example 1, 5-Cyano-3-(2-ethoxyphenyl)-2-oxo-1-(quinoline-8-sulfonyl)-2,3-dihydro-1H-indol-3-yl 4-(thiazol-2-yl)piperazine-1-carboxylate]
> 7.30	> 7.00	CCOc1ccccc1C1(NC(=O)N2CCN(c3ccncc3)CC2)C(=O)N(S(=O)(=O)c2ccsc2)c2ccc(C#N)cc21 (stereo not drawn) [Example 3, 4-(Pyridin-4-yl)piperazin-1-[5-cyano-3-(2-ethoxyphenyl)-2-oxo-1-(thien-3-yl-sulfonyl)-2,3-dihydro-1H-indol-3-yl]carboxamide]
> 7.30	> 7.00	CCOc1ccccc1C1(OC(=O)N2CCN(c3ccncc3)CC2)C(=O)N(S(=O)(=O)c2cccc3cccnc23)c2ccc(C#N)cc21 (stereo not drawn) [Example 12, 5-Cyano-3-(2-ethoxyphenyl)-2-oxo-1-(quinoline-8-sulfonyl)-2,3-dihydro-1H-indol-3-yl 4-(pyridin-4-yl)piperazine-1-carboxylate]
> 7.30	> 7.00	CCOc1ccccc1C1(OC(=O)N2CCN(c3ccccn3)CC2)C(=O)N(S(=O)(=O)c2cccc3cccnc23)c2ccc(C#N)cc21 (stereo not drawn) [Example 5, 5-Cyano-3-(2-ethoxyphenyl)-2-oxo-1-(quinoline-8-sulfonyl)-2,3-dihydro-1H-indol-3-yl 4-(pyridin-2-yl)piperazine-1-carboxylate]

Source: patent US8202870B2, “Substituted oxindole derivatives, medicaments containing the latter and use thereof” (Abbott GmbH & Co. KG, priority 2005, dated 2012)
